Source: PMC11087509, “Multimodal binding and inhibition of bacterial ribosomes by the antimicrobial peptides Api137 and Api88” (Nature Communications, 2024)
Where a SMILES comes first, the peptide text is derived from it. The star is where a group is joined. Orn(α-tetramethylguanidino) = CN(C)C(=N[C@@H](CCCN)C(=O)*)N(C)C

What was measured:
purified 70S ribosomes = assay: In vitro transcription-translation (ITT) of sfGFP; type: biochemical, E. coli
Excerpt: sfGFP was expressed using the NEB PureExpress Delta RF123 Kit (New England Biolabs). The sfGFP DNA template encoding for an UAG stop codon was amplified from the pY71sfGFP plasmid by PCR using sfGFP primers (sfGFP fwd: […] and sfGFP rev: […]). The release factor RF1 included in the kit was 50-fold diluted (v/v) in freshly prepared 1x Pure System Buffer (PSB, 9 mmol/L magnesium acetate, 5 mmol/L K3PO4 (pH 7.3), 95 mmol/L potassium glutamate, 5 mmol/L NH4Cl, 0.5 mmol/L CaCl2, 1 mmol/L spermidine, 8 mmol/L putrescine, 1 mmol/L DTT). sfGFP was expressed in a freshly prepared mixture of kit solution A (2 µL), kit solution B (1.5 µL), 50-fold diluted RF1 (0.5 µL), sfGFP template (0.1325 pmol, 35 ng) or water as control (0.25 µL), PSB (0.25 µL), and a PrAMP (50, 5, 0.05 or 0 µmol/L) dissolved in water (0.5 µL). The reaction mixture was transferred to a black 384-well plate (Greiner Bio-One GmbH, Frickenhausen, Germany), covered with a lid, and incubated in a microplate reader (Gemini EM, Molecular Devices) at 37 °C for two hours. Fluorescence was recorded every 10 min (λexc = 485 nm, λem = 535 nm).

50S subunit = molecular target: T1, 50S subunit (Escherichia coli, UniProt P0A7M6+P0ADZ0+P60723+P61175); assay: Fluorescence polarization binding, 50S subunit; set-up: species or system E. coli
T1 construct: Ribosomes were isolated from the E. coli strain MRE600; made in house; native subunits isolated in house
Procedure: Several hundred grams of log-phase cells were commercially produced and purchased. Cells were washed in buffer A (20 mmol/L HEPES (pH 7.6), 6 mmol/L MgAc2, 30 mmol/L AcOK, 4 mmol/L ß-mercaptoethanol) and lysed in an M-110L microfluidizer (Microfluidics) at 17,000 psi and 4 °C. Cell debris was removed by low-speed centrifugation (15,000× g, 10 min, 4 °C) to obtain S30 lysate. Crude ribosomes, mostly containing 70S ribosomes, were pelleted by ultracentrifugation (40,000× g, 17 h, 4 °C) and resuspended in buffer A. The 70S ribosomes were separated from 30S and 50S subunits by zonal ultracentrifugation (Beckman Ti-15; 6–40% sucrose gradient in buffer A, 44,000× g, 16 h, 4 °C). The 70S-containing fractions were collected, and the ribosomes were sedimented by ultracentrifugation (40,000× g, 17 h, 4 °C). Since these 70S ribosomes still contained tRNAs and mRNA, they were resuspended in buffer B (20 mmol/L HEPES (pH 7.6), 1 mmol/L MgAc2, 0.2 mol/L NH4Ac, 4 mmol/L ß-mercaptoethanol), which allows for dissociation into 30S and 50S subunits, and subjected to a second zonal centrifugation (Beckman Ti-15, 44,000× g, 16 h, 4 °C), but this time in a 6–40% sucrose gradient prepared in buffer B. Fractions containing 30S and 50S subunits were collected, sedimented by ultracentrifugation (40,000× g, 17 h, 4 °C), resuspended in buffer A, aliquoted, shock-frozen in liquid nitrogen, and stored at −80 °C.
Dissociation constants (Kd) were determined using purified 70S ribosome, 50S or 30S subunit and cf-labeled peptides in ribosome preparation buffer. Briefly, black 384-well plates (flat bottom, 781209, Greiner Bio-One GmbH) were blocked with casein (0.5%, w/v) in PBS containing 0.05% (v/v) Tween 20 at 4 °C overnight and washed three times with phosphate buffer. A 2-fold dilution series (22 steps) of pure 70S ribosome, 50S or 30S subunit (10 μL per well) in ribosome preparation buffer was prepared in a black 384-well plate. The cf-labeled peptide was dissolved in ribosome preparation buffer (10 μL, 40 nmol/L), added to each well, centrifuged (500 x g, 2 min), and incubated at 28 ± 1 °C for 90 min. Fluorescence polarization was measured on a […]^TM microplate reader (Beckman Coulter, Krefeld, Germany) in the top reading position (λexc = 485 nm, λem = 535 nm). Data were fitted to a nonlinear dose-response logistic transition equation [y = y0 + a/(1 + (x/x0)b)] using the Levenberg-Marquardt algorithm, with Kd represented by the x0 coefficients (GraphPad Prism for Windows v. 10.1.2, San Diego, CA, USA).

[1] = test system: ribosome (arrest at UAG stop codon of model yrbA ORF); assay: In vitro toeprinting analysis (yrbA-fs15 template, TAG stop codon); type: biochemical; conditions: 50 µmol/L; gel, one of two replicates
Procedure: Toeprinting experiments using the yrbA-fs15 DNA template with a TAG stop codon were performed in the NEB classic PURExpress system (New England Biolabs)[21] as described above. The template was prepared by PCR[21] by combining the overlapping primers T7, T7-IR-AUG, IR-yrbA-fs15-RF1 (for TAG), post-NV1, and NV1, rendering the sequence:
[…](TAG)[…] (ORF sequence is underlined). The peptides Api137 and Api88 were added from stock solutions in water to a final concentration of 50 µM.

uL22 and uL4 = conditions: cited from earlier work
30S subunit = assay: Fluorescence polarization binding, 30S subunit; set-up: species or system E. coli; conditions: ratio 30S / 50S; cf-labeled
Procedure: Several hundred grams of log-phase cells were commercially produced and purchased. Cells were washed in buffer A (20 mmol/L HEPES (pH 7.6), 6 mmol/L MgAc2, 30 mmol/L AcOK, 4 mmol/L ß-mercaptoethanol) and lysed in an M-110L microfluidizer (Microfluidics) at 17,000 psi and 4 °C. Cell debris was removed by low-speed centrifugation (15,000× g, 10 min, 4 °C) to obtain S30 lysate. Crude ribosomes, mostly containing 70S ribosomes, were pelleted by ultracentrifugation (40,000× g, 17 h, 4 °C) and resuspended in buffer A. The 70S ribosomes were separated from 30S and 50S subunits by zonal ultracentrifugation (Beckman Ti-15; 6–40% sucrose gradient in buffer A, 44,000× g, 16 h, 4 °C). The 70S-containing fractions were collected, and the ribosomes were sedimented by ultracentrifugation (40,000× g, 17 h, 4 °C). […]
Dissociation constants (Kd) were determined using purified 70S ribosome, 50S or 30S subunit and cf-labeled peptides in ribosome preparation buffer. […] Fluorescence polarization was measured on a […]^TM microplate reader (Beckman Coulter, Krefeld, Germany) in the top reading position (λexc = 485 nm, λem = 535 nm). […]

murine infection models = conditions: various models, different routes of administration; cited from earlier work
Excerpt: Here we have focused on two structurally modified versions of apidaecin 1b ([…]), which was originally isolated from the western honeybee (Apis mellifera). […] Api137 and Api88 differ only in their C-termini, i.e., a free acid versus an amide, which are negatively charged or neutral, respectively, ...

## CC[C@H](C)[C@H](NC(=O)[C@H](Cc1ccc(O)cc1)NC(=O)[C@@H](NC(=O)[C@@H]1CCCN1C(=O)[C@H](CCCNC(=N)N)NC(=O)[C@H](CC(N)=O)NC(=O)[C@H](CC(N)=O)NC(=O)[C@H](CCCN)N=C(N(C)C)N(C)C)C(C)C)C(=O)N1CCC[C@H]1C(=O)N[C@@H](CCCNC(=N)N)C(=O)N1CCC[C@H]1C(=O)N[C@@H](CCCNC(=N)N)C(=O)N1CCC[C@H]1C(=O)N1CCC[C@H]1C(=O)N[C@@H](Cc1c[nH]cn1)C(=O)N1CCC[C@H]1C(=O)N[C@@H](CCCNC(=N)N)C(=O)N[C@@H](CC(C)C)C(=O)O [Api137] ({Orn(α-tetramethylguanidino)}-NNRPVYIPRPRPPHPRL-OH)
Purified 70S ribosomes; absence of RF1, 50 µmol/L
  production of sfGFP reduced down to: ~ 60%
Purified 70S ribosomes; in vitro protein translation, with vs without RF1
  share of inhibitory effect based on a RF1-independent mechanism: half of the inhibitory effect
50S subunit; apparent Kd, cf-labeled PrAMP (10 μL, 40 nmol/L), ribosome preparation buffer pH 7.6, 28 °C, 90 min, mean of triplicates
  Kd: 2.18 ± 0.11 µM
50S subunit; ratio 70S / 50S, cf-labeled
  Kd for 50S subunit lower than for 70S ribosome: two-
[1]
  toeprinting band at the UAG stop codon: intense toeprinting band
uL22 and uL4
  ribosomal proteins interacting (genetic screen): uL22 and uL4
30S subunit
  binding to 30S subunit weaker compared to 50S subunit: ~10 fold
Murine infection models
  efficacy in murine infection models: demonstrated efficacy in various murine infection models
